Reference: PubChem BioAssay (NCI)
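Each compound was tested at five concentrations against cells in 96-well plates for 48 hours. Definition used: TGI = concentration required for complete inhibition of growth.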

Columns and labels:
Assay in all cases: DTP human tumour cell line panel, 48 h
NCI/ADR-RES ovarian = tested on: NCI/ADR-RES ovarian
SR leukemia = tested on: SR leukemia
A498 renal = tested on: A498 renal
NCI-H226 lung = tested on: NCI-H226 lung
HOP-62 NSCLC = tested on: HOP-62 NSCLC

O=C1/C(=C/c2cccs2)NC(=S)N1CN1CCOCC1
TGI (NCI/ADR-RES ovarian): > 100 µM | TGI (SR leukemia): > 100 µM | TGI (A498 renal): > 100 µM | TGI (NCI-H226 lung): > 100 µM | TGI (HOP-62 NSCLC): > 100 µM

CCCC#CC(O)(C(=O)OC1CCN(C)CC1)C1CCCCC1 (stereo not given)
TGI (NCI/ADR-RES ovarian): > 100 µM | TGI (SR leukemia): > 100 µM | TGI (A498 renal): > 100 µM | TGI (NCI-H226 lung): > 100 µM | TGI (HOP-62 NSCLC): > 100 µM

CC1(C)C(=O)C2(OS(=O)(=O)C(F)(F)F)CCC1C2 (stereo not given)
TGI (NCI/ADR-RES ovarian): > 100 µM | TGI (SR leukemia): > 100 µM | TGI (A498 renal): > 100 µM | TGI (NCI-H226 lung): > 100 µM | TGI (HOP-62 NSCLC): > 100 µM

C/C(=N\O)c1cccc(Nc2nc3ccccc3c3occc23)c1
TGI (NCI/ADR-RES ovarian): 29.7 µM | TGI (SR leukemia): 35.1 µM | TGI (A498 renal): 29.2 µM | TGI (NCI-H226 lung): 16.5 µM | TGI (HOP-62 NSCLC): 32.8 µM

CC(=O)N1N=C(N)CC1=O
TGI (NCI/ADR-RES ovarian): > 100 µM | TGI (SR leukemia): > 100 µM | TGI (A498 renal): > 100 µM | TGI (NCI-H226 lung): > 100 µM | TGI (HOP-62 NSCLC): > 100 µM

COC(=O)[C@H](Cc1ccccc1)NP(=O)(O)OCC1OC(n2cc(C)c(=O)[nH]c2=O)CC1N=[N+]=[N-] (stereo not given in full)
TGI (NCI/ADR-RES ovarian): > 100 µM | TGI (SR leukemia): > 100 µM | TGI (A498 renal): > 100 µM | TGI (NCI-H226 lung): > 100 µM | TGI (HOP-62 NSCLC): > 100 µM

COc1cc2c(cc1OC)C(Cc1ccccc1CCCl)=NCC2
TGI (NCI/ADR-RES ovarian): > 100 µM | TGI (SR leukemia): > 100 µM | TGI (A498 renal): > 100 µM | TGI (NCI-H226 lung): > 100 µM | TGI (HOP-62 NSCLC): > 100 µM

Cc1ccc(/C=N/Nc2nncc3ccccc23)s1
TGI (NCI/ADR-RES ovarian): > 100 µM | TGI (SR leukemia): > 100 µM | TGI (A498 renal): > 100 µM | TGI (NCI-H226 lung): > 100 µM | TGI (HOP-62 NSCLC): > 77.4 µM

Cc1ccc(O)c(-c2csc(NCN3CCN(CNc4nc(-c5cc(C)ccc5O)cs4)CC3)n2)c1
TGI (NCI/ADR-RES ovarian): > 100 µM | TGI (SR leukemia): > 100 µM | TGI (A498 renal): > 100 µM | TGI (NCI-H226 lung): > 100 µM | TGI (HOP-62 NSCLC): > 100 µM

O=c1[nH]c2ccc(CC(=S)N3CCN(c4ccccc4)CC3)cc2o1
TGI (NCI/ADR-RES ovarian): > 100 µM | TGI (SR leukemia): > 100 µM | TGI (A498 renal): > 100 µM | TGI (NCI-H226 lung): > 100 µM | TGI (HOP-62 NSCLC): > 100 µM

COC1(OC)C2(Cl)C(Cl)=C(Cl)C1(Cl)C1COCC12 (stereo not given)
TGI (NCI/ADR-RES ovarian): > 100 µM | TGI (SR leukemia): > 100 µM | TGI (A498 renal): > 100 µM | TGI (NCI-H226 lung): > 100 µM | TGI (HOP-62 NSCLC): > 100 µM
